Calls of active or inactive are those of the source. The rule behind the calls is not given here.
Legend:
[1] = test system: Human immunodeficiency virus 1; assay: Antiviral activity against HIV1 3B infected in human HOS cells expressing human CXCR4/CCR5/CD4/pHIV-LTR luciferase assessed as inhibition of viral infection to cells; format: functional, organism-based; settings: Human immunodeficiency virus 1, 3B
[2] = Cytotoxicity against human HOS cells expressing human CXCR4/CCR5/CD4/pHIV-LTR luciferase; format: cell-based
[3] = molecular target: T1, C-X-C chemokine receptor type 4 (Homo sapiens, UniProt P61073); assay: Binding affinity to human CXCR4 expressed in HEK293 cells; format: cell-based
[4] = molecular target: T1, C-X-C chemokine receptor type 4; assay: Antagonist activity at human CXCR4 expressed in HEK293 cells; format: functional, cell-based
[5] = Half life in rat at 1 mg/kg, iv; format: ADME, organism-based; set-up: dose 1 mg/kg, route intravenous; settings: in vivo
[6] = Clearance in rat at 1 mg/kg, iv; format: ADME, organism-based; set-up: dose 1 mg/kg, route intravenous; settings: in vivo
[7] = Volume of distribution in rat at 1 mg/kg, iv; format: ADME, organism-based; set-up: dose 1 mg/kg, route intravenous; settings: in vivo
[8] = Oral bioavailability in rat at 3 mg/kg; format: ADME, organism-based; settings: in vivo

T1 sequence (P61073 whole entry): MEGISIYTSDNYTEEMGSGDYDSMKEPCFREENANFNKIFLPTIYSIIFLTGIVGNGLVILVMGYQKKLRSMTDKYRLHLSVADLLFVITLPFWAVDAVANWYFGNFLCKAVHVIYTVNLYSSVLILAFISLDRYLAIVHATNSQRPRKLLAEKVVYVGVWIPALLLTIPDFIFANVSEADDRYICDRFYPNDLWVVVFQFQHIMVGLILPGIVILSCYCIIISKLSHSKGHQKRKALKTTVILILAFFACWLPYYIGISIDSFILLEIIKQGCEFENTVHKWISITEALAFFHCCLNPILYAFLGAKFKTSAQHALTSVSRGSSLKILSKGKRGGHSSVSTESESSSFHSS

Row | SMILES | IC50 [1] [nM] | CC50 [2] [nM] | IC50 [3] [nM] | Activity [4] | half-life [5] [h] | clearance [6] [mL/min/kg] | Vd [7] [L/kg] | bioavailability [8] [%]
1 | NCCCCN(Cc1ccccn1)C1CCCc2cccnc21 (racemic) | 70 | 11000 |  |  |  |  |  | 
2 | Cn1ccnc1CN(CCCCN)C1CCCc2cccnc21 (racemic) | 120 | > 20000 |  |  |  |  |  | 
3 | CN(Cc1ncc2ccccc2c1C#N)[C@H]1CCCc2cccnc21 | 72 | 1300 |  |  |  |  |  | 
4 | CN(Cc1ncc2ccccc2c1CN)[C@H]1CCCc2cccnc21 | 27 | 3100 |  |  |  |  |  | 
5 | CN(C)Cc1c(CN(C)[C@H]2CCCc3cccnc32)ncc2ccccc12 | 48 | 5900 |  |  |  |  |  | 
6 | CN(C)CC(=O)NCc1c(CN(C)[C@H]2CCCc3cccnc32)ncc2ccccc12 | 12 | 480 | 16 | Active | 1.5 | 11 | 1.5 | 10
7 | CN(Cc1cc2ccccc2cn1)[C@H]1CCCc2cccnc21 | 160 | 650 |  |  |  |  |  | 
8 | CN(C)CCCc1c(CN(C)[C@H]2CCCc3cccnc32)ncc2ccccc12 | 5 | 650 | 3.4 | Active | 2.9 | 6.1 | 2.9 | 6
9 | NCCCCN(Cc1nc2ccccc2s1)C1CCCc2cccnc21 (racemic) | 200 | 13000 |  |  |  |  |  | 
10 | NCCCCN(Cc1cc2ccccc2cn1)C1CCCc2cccnc21 (racemic) | 12 | 13000 |  |  |  |  |  | 
11 | NCCCCN(Cc1nc2ccccc2[nH]1)C1CCCc2cccnc21 (racemic) | 23 | 13000 |  | Active |  |  |  | 
12 | CN(Cc1ncc2ccccc2c1CCCNC(=N)N)[C@H]1CCCc2cccnc21 | 17 | 6500 |  |  |  |  |  | 
13 | CN(C)C(=O)NCCCc1c(CN(C)[C@H]2CCCc3cccnc32)ncc2ccccc12 | 38 | 750 |  |  | 3.1 | 16 | 1.7 | 20
14 | CN(Cc1ncc2ccccc2c1CCCNS(C)(=O)=O)[C@H]1CCCc2cccnc21 | 16 | 690 |  |  | 5.8 | 9.5 | 1.4 | 4
15 | CN(Cc1ncc2ccccc2c1CNC(=N)N)[C@H]1CCCc2cccnc21 | 20 | 9000 |  |  | 12 | 16 | 9 | 0
16 | NCCCCN(Cc1nccc2ccccc12)C1CCCc2cccnc21 (racemic) | 11 | 8200 |  |  |  |  |  | 
17 | CN1CCC[C@H]1C(=O)NCc1c(CN(C)[C@H]2CCCc3cccnc32)ncc2ccccc12 | 44 | 540 |  |  |  |  |  | 
18 | NCCCCN(Cc1cn2ccccc2n1)C1CCCc2cccnc21 (racemic) | 42 | > 20000 |  |  |  |  |  | 
19 | NCCCCN(Cc1ccc2ccccc2n1)C1CCCc2cccnc21 (racemic) | 34 | 12000 |  |  |  |  |  | 
20 | NCCCCN(Cc1nccs1)C1CCCc2cccnc21 (racemic) | 340 | 9700 |  |  |  |  |  | 
21 | Cn1cncc1CN(CCCCN)C1CCCc2cccnc21 (racemic) | > 20000 | > 20000 |  |  |  |  |  | 
22 | CN1CCC[C@@H]1C(=O)NCc1c(CN(C)[C@H]2CCCc3cccnc32)ncc2ccccc12 | 12 | 690 |  |  |  |  |  | 
23 | CN(Cc1ncc2ccccc2c1CNS(C)(=O)=O)[C@H]1CCCc2cccnc21 | 41 | 2000 |  |  |  |  |  | 
24 | CN(Cc1ncc2ccccc2c1CCCN)[C@H]1CCCc2cccnc21 | 12 | 1000 |  |  |  |  |  | 
25 | NCCCCN(Cc1cccnc1)C1CCCc2cccnc21 (racemic) | > 20000 | > 20000 |  |  |  |  |  | 
26 | CN(Cc1ncc2ccccc2c1CCC#N)[C@H]1CCCc2cccnc21 | 21 | 950 |  |  |  |  |  | 
